This passage reports TGI and GI50 results from PubChem BioAssay (NCI).

Some test systems named below: NCI-H460 lung; PC-3 prostate; NCI/ADR-RES ovarian; A549 NSCLC; OVCAR-3 ovarian; UACC-257 melanoma; HL-60(TB) leukemia; MDA-MB-231 breast; COLO 205 colon; NCI-H226 lung.
Assay in all cases: inhibition of tumour cell growth, NCI panel, 48 h

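Briefly, cells in 96-well plates were exposed to five compound concentrations for 48 h, and endpoints were estimated by linear interpolation. GI50 = concentration required for 50% inhibition of growth. TGI: total growth inhibition.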

In the case of `Nc1ccc2c(c1)CN1C(=O)c3ccccc3C1=N2`, the TGI in the experiment with NCI-H460 lung, in the experiment on PC-3 prostate, in the experiment on NCI/ADR-RES ovarian, in the experiment with A549 NSCLC, in the experiment with OVCAR-3 ovarian and with UACC-257 melanoma was over 125 µM throughout. Also, the TGI in the experiment on HL-60(TB) leukemia is over 125 µM; with MDA-MB-231 breast, 123 µM; with COLO 205 colon, over 125 µM; with NCI-H226 lung, over 117 µM. The GI50 in the experiment with OVCAR-3 ovarian is 98.8 µM; in the experiment on UACC-257 melanoma, 67.5 µM; in the experiment with HL-60(TB) leukemia it was 15.5 µM; in the experiment with COLO 205 colon, 33.9 µM; in the experiment with NCI-H226 lung, 36.8 µM.

`COC1C(CO)OC(n2c3ccccc3c3c4c(c5c6ccccc6[nH]c5c32)C(=O)NC4=O)C(O)C1OC(=O)C(N)CCCCN` (stereo not given): the GI50 was 3.64 µM in the experiment with NCI-H460 lung; 1.43 µM in the experiment on PC-3 prostate; over 50 µM in the experiment with NCI/ADR-RES ovarian; 3.27 µM with A549 NSCLC; 0.822 µM with OVCAR-3 ovarian; 0.648 µM in the experiment with UACC-257 melanoma. Also, the GI50 was 0.231 µM in the experiment on HL-60(TB) leukemia, 0.985 µM in the experiment on MDA-MB-231 breast, 1.27 µM with COLO 205 colon and 0.777 µM with NCI-H226 lung. Further, the TGI in the experiment with NCI-H460 lung was 27.1 µM; in the experiment on PC-3 prostate it was over 42.3 µM; with NCI/ADR-RES ovarian, over 50 µM; with A549 NSCLC, over 50 µM; in the experiment with OVCAR-3 ovarian, 5.1 µM; in the experiment with UACC-257 melanoma it was over 10.2 µM. Besides, the TGI was over 50 µM in the experiment on HL-60(TB) leukemia, 8 µM in the experiment with MDA-MB-231 breast, over 17.2 µM in the experiment with COLO 205 colon and 9.59 µM in the experiment with NCI-H226 lung.

On to `CCCCCCN1C(=O)CN=C1Nc1ccc2cc3ccc(NC4=NCC(=O)N4CCCCCC)cc3nc2c1`, for which the GI50 was 1.93 µM in the experiment on NCI-H460 lung; 2.54 µM with PC-3 prostate; 3.32 µM with NCI/ADR-RES ovarian; 2.03 µM with A549 NSCLC; 1.36 µM in the experiment with OVCAR-3 ovarian; 3.34 µM in the experiment with UACC-257 melanoma. Also, the GI50 was 1.96 µM in the experiment on HL-60(TB) leukemia, 1.94 µM in the experiment on MDA-MB-231 breast, 1.88 µM in the experiment with COLO 205 colon and 2.48 µM with NCI-H226 lung. The TGI stood at 3.83 µM with NCI-H460 lung; 9 µM in the experiment on PC-3 prostate; 15 µM in the experiment on NCI/ADR-RES ovarian; 3.96 µM in the experiment with A549 NSCLC; 3.08 µM in the experiment on OVCAR-3 ovarian; 9.74 µM in the experiment with UACC-257 melanoma. For the same compound, the TGI in the experiment with HL-60(TB) leukemia turned out to be 4.16 µM; with MDA-MB-231 breast it was 3.87 µM; with COLO 205 colon, 4.04 µM; in the experiment on NCI-H226 lung, 7.25 µM.

As to `CC(C)n1nc(C#Cc2cccc(NC(=O)c3cccc(C(F)(F)F)c3)c2)c2c(N)ncnc21`, the GI50 in the experiment on NCI-H460 lung is 3 µM; with PC-3 prostate, 2.91 µM; in the experiment with NCI/ADR-RES ovarian, 2.83 µM; with A549 NSCLC, 3.29 µM; with OVCAR-3 ovarian, 2.96 µM; in the experiment on UACC-257 melanoma, 0.538 µM. Moreover, the GI50 in the experiment on HL-60(TB) leukemia is 0.156 µM; in the experiment on MDA-MB-231 breast, 0.256 µM; in the experiment with COLO 205 colon, 0.524 µM; in the experiment on NCI-H226 lung, 0.99 µM. For the same compound, the TGI is over 100 µM in the experiment on NCI-H460 lung; over 100 µM in the experiment on PC-3 prostate; over 100 µM in the experiment on NCI/ADR-RES ovarian; 64.4 µM in the experiment on A549 NSCLC; 28.9 µM in the experiment with OVCAR-3 ovarian; 5.68 µM in the experiment with UACC-257 melanoma. In addition, the TGI in the experiment on HL-60(TB) leukemia is over 100 µM; in the experiment with MDA-MB-231 breast it was 2.07 µM; in the experiment on COLO 205 colon, 5.73 µM; with NCI-H226 lung it was 6.35 µM.

For the compound `CCc1nc(N)nc(N)c1-c1ccc([N+](=O)[O-])c(Cl)c1`, the TGI was over 100 µM in the experiment with NCI-H460 lung; over 100 µM in the experiment on PC-3 prostate; over 100 µM in the experiment on NCI/ADR-RES ovarian; over 80.8 µM in the experiment on A549 NSCLC; over 100 µM in the experiment on OVCAR-3 ovarian; over 100 µM in the experiment with UACC-257 melanoma. In addition, the TGI in the experiment on HL-60(TB) leukemia, with MDA-MB-231 breast, in the experiment on COLO 205 colon and with NCI-H226 lung was over 100 µM in each case.

On to `CCNC(=O)Oc1ccc(/C(=C(\C)c2ccc(Cl)cc2)c2ccc(OCCN3CCCCC3)cc2)cc1`, for which the GI50 in the experiment on NCI-H460 lung is 2.19 µM; in the experiment with PC-3 prostate it was 3.38 µM; with NCI/ADR-RES ovarian it was 5.59 µM; with A549 NSCLC, 8.47 µM; in the experiment on OVCAR-3 ovarian, 3.52 µM; in the experiment with UACC-257 melanoma, 2.38 µM. In addition, the GI50 with HL-60(TB) leukemia is 1.99 µM; in the experiment on MDA-MB-231 breast, 3.55 µM; with COLO 205 colon, 2.1 µM; in the experiment with NCI-H226 lung, 14.4 µM. The TGI in the experiment with NCI-H460 lung was 4.64 µM; in the experiment on PC-3 prostate it was 11.3 µM; in the experiment with NCI/ADR-RES ovarian, 22.7 µM; in the experiment with A549 NSCLC, 22.4 µM; in the experiment with OVCAR-3 ovarian it was 13.4 µM; in the experiment on UACC-257 melanoma, 5.12 µM. Further, the TGI in the experiment with HL-60(TB) leukemia was found to be 4.47 µM; in the experiment on MDA-MB-231 breast it was 11.5 µM; with COLO 205 colon, 4.6 µM; with NCI-H226 lung, 36.7 µM.

As to `CN(C)c1ccc(Sc2ccc3nc(N)nc(N)c3c2)cc1`, the GI50 is 0.174 µM in the experiment on NCI-H460 lung; 0.63 µM in the experiment with PC-3 prostate; 0.743 µM in the experiment on NCI/ADR-RES ovarian; 0.139 µM with A549 NSCLC; 1.56 µM in the experiment with OVCAR-3 ovarian; 1.09 µM with UACC-257 melanoma. Further, the GI50 in the experiment on HL-60(TB) leukemia was 0.444 µM; in the experiment with MDA-MB-231 breast, 2.23 µM; with COLO 205 colon, 1.14 µM; with NCI-H226 lung, 4.21 µM. Further, the TGI in the experiment with NCI-H460 lung came to 2.71 µM; in the experiment with PC-3 prostate, 15.6 µM; in the experiment on NCI/ADR-RES ovarian it was 14.9 µM; in the experiment with A549 NSCLC it was 12 µM; in the experiment with OVCAR-3 ovarian, 4.59 µM; in the experiment on UACC-257 melanoma, 4.91 µM. The TGI with HL-60(TB) leukemia stood at 2.2 µM; in the experiment with MDA-MB-231 breast it was 14.1 µM; in the experiment with COLO 205 colon, 2.59 µM; in the experiment on NCI-H226 lung, 18.6 µM.

For `O=c1[nH]c2cc(O)ccc2n2cc3c(F)cccc3c12`, the GI50 is 0.451 µM in the experiment on NCI-H460 lung; 4.54 µM in the experiment with PC-3 prostate; 0.698 µM in the experiment with NCI/ADR-RES ovarian; 1.31 µM in the experiment on A549 NSCLC; 5.77 µM with OVCAR-3 ovarian; 31.9 µM with UACC-257 melanoma. Besides, the GI50 in the experiment on HL-60(TB) leukemia was 6.55 µM; in the experiment with MDA-MB-231 breast, 6.42 µM; in the experiment on COLO 205 colon, 7.3 µM; in the experiment on NCI-H226 lung, 2.04 µM. The TGI with NCI-H460 lung, with PC-3 prostate, in the experiment on NCI/ADR-RES ovarian, in the experiment on A549 NSCLC, in the experiment with OVCAR-3 ovarian and in the experiment with UACC-257 melanoma was over 100 µM throughout. In addition, the TGI in the experiment on HL-60(TB) leukemia, with MDA-MB-231 breast, in the experiment on COLO 205 colon and with NCI-H226 lung was over 100 µM throughout.
